Results: publication PMC12471853, “New Marine Actinobacteria Strain, Micromonospora sp. SH-82: Characterization, Specialized Metabolites and Biological Activities” (Microorganisms, 2025)
Like-named read-outs stand apart in the source and are kept apart here.

Tests used:
[1] = system: Plasmodium falciparum 3D7; assay: Antiplasmodial activity, in vitro culture of chloroquine-sensitive strain; assay type: cell-based
Procedure: Biological activity assays were conducted on microbial extract from Micromonospora sp. SH-82 and on isolated compounds 1, 2, 3, and 5. The tests focused on antiplasmodial and cytotoxic activity. Detailed protocols for these activity tests can be found in reference. The antiplasmodial activity was conducted by using in vitro cultures of the chloroquine-sensitive 3D7 strain of Plasmodium falciparum (BEI Resources, Manassas, VA, USA) following the methodology of Trager and Jensen. The assays were performed in three independent experiments (n = 3), each conducted in duplicate. Artemisinin was used as the positive control, while DMSO served as the vehicle and negative control, representing 100% parasite growth. Untreated red blood cells were also included as a blank. The measurements consisted of determining the concentration required to inhibit 50% of parasite growth (IC50), expressed in µg/mL for the crude extract and in µM for the isolated compounds. IC50 values were calculated via simple linear regression.

[2] = Cytotoxic activity, CellTiter Glo luminescent cell viability assay, 72 h; assay type: cell-based; settings: human, read-out: Percentage of Cell Viability
Procedure: (§1) Biological activity assays were conducted on microbial extract from Micromonospora sp. SH-82 and on isolated compounds 1, 2, 3, and 5. The tests focused on antiplasmodial and cytotoxic activity. Detailed protocols for these activity tests can be found in reference. The cytotoxic activity was performed on human colorectal HCT-116 and mammary MDA-MB-231 carcinoma cells. Human HCT-116 colorectal carcinoma cells were grown in Gibco McCoy’s 5A supplemented with 10% fetal calf serum and 1% glutamine. MDA-MB231 breast carcinomas were grown in RPMI 1640 supplemented with 10% fetal calf serum and 1% glutamine. Human hTERT-RPE1 cells were cultured in DMEM/F12 medium containing 10% fetal calf serum and 1% glutamine, enabling their impact on a healthy cell line. Cell lines were maintained at 37 °C in a humidified atmosphere containing 5% CO2. Cell viability was determined via a luminescent assay according to the manufacturer’s instructions (Promega, Madison, WI, USA). Briefly, the cells were seeded in 96-well plates (2.5 × 10^3 cells/well) containing 90 μL of growth medium. After 24 h of culture, the cells were treated with the tested compounds at 10 and 1 μg/mL (extracts) or at 10 and 1 μM (pure compounds) final concentrations. Control cells were treated with the vehicle (DMSO), and no effect was observed from DMSO diluted at 1/1000. After 72 h of incubation, 100 μL of CellTiter Glo Reagent was added for 15 min before recording luminescence with a spectrophotometric plate reader PolarStar Omega (BMG LabTech, Ortenberg, Germany). The percent viability index was evaluated by two independent assays in triplicate.

RPE1 cell line = assay: Cytotoxicity on non-cancerous cell line, CellTiter Glo luminescent cell viability assay, 72 h; assay type: cell-based, human; settings: RPE1; 10 and 1 µM (compounds) or 10 and 1 µg/mL (extract)
Procedure: as §1

[3] = as above; assay type: cell-based, human; settings: human, hTERT-RPE1 cells (non-cancerous cell line), 72 h, read-out: Percentage of Cell Viability; for viability at 72 h, 1 µM: RPE1, pure compounds at 1 µM; for viability at 72 h, 10 µM: RPE1, pure compounds at 10 µM
Procedure: as §1

[4] = Stability check of compound 5 by new NMR and ESI+-HRMS analyses; assay type: physicochemical; settings: re-analysis by NMR and ESI+-HRMS prior to biological assays, one year later (Figure S43)
Procedure: Prior to conducting biological assays, it was necessary to ascertain the stability of compound 5. To this end, new NMR and ESI^+-HRMS analyses were recorded (Figures S38–S43). […] The first one could be identified as the 9-hydroxy derivative of 5 and, thus, to 6,9-hemiacetal-9-hydroxy-10,11-anhydroerythronolide B (5.1) (Figure 2). The second one has a carbonyl in C-9 at δC 208.8 and, therefore, corresponds to the open form of the first one: 8-epi-10,11-anhydroerythronolide B (5.2) (Figure 2).

[5] = HCT-116 colorectal carcinoma cells, HCT-116, pure compounds at 1 µM
[6] = HCT-116 colorectal carcinoma cells, HCT-116, pure compounds at 10 µM
[7] = MDA-MB-231 breast carcinoma cells, MDA-MB-231, pure compounds at 1 µM
[8] = MDA-MB-231 breast carcinoma cells, MDA-MB-231, pure compounds at 10 µM

IC50 ([1]; 3D7, positive control, read-out: IC50 against Plasmodium falciparum 3D7 (converted)) [µg/mL] | IC50 ([1]; 3D7, Experiment 1, dose-response curve, Figure 8, read-out: IC50 against Plasmodium falciparum 3D7 (converted)) [µM] | IC50 ([1]; 3D7, Experiment 2, dose-response curve, Figure 8, read-out: IC50 against Plasmodium falciparum 3D7 (converted)) [µM] | IC50 ([1]; 3D7, Experiment 3, dose-response curve, Figure 8, read-out: IC50 against Plasmodium falciparum 3D7 (converted)) [µM] | IC50 ([1]; 3D7, IC50 obtained from the average dose-response curve, Figure 8, read-out: IC50 (mean curve)) [µM] | IC50 ([1]; 3D7, arithmetic mean ± SD of three independent assays, read-out: IC50 against Plasmodium falciparum 3D7 (converted)) [µM] | IC50 ([1]; 3D7, mean ± SD of three independent assays, read-out: IC50 against Plasmodium falciparum 3D7 (converted)) [µg/mL] | stability of the compound (in words) [4] | Compound | viability at 72 h, 1 µM [2, 5] [%] | viability at 72 h, 10 µM [2, 6] [%] | viability at 72 h, 1 µM [2, 7] [%] | viability at 72 h, 10 µM [2, 8] [%] | toxicity towards healthy cells (in words) (RPE1 cell line) | viability at 72 h, 1 µM [3] [%] | viability at 72 h, 10 µM [3] [%]
0.00636 |  |  |  |  |  |  |  | C[C@@H]1CC[C@H]2[C@@H](C)C(=O)O[C@@H]3O[C@@]4(C)CC[C@@H]1[C@]32OO4 [Artemisinin, reference compound] |  |  |  |  |  |  | 
 |  |  |  |  |  |  |  | CC[C@H]1OC(=O)[C@H](C)[C@@H](O)[C@H](C)[C@@H](O)[C@](C)(O)C[C@@H](C)C(=O)[C@H](C)[C@@H](O)[C@H]1C [Compound 1, Erythronolide B] | 101 ± 0.5 | 104 ± 1.16 | 107 ± 0.86 | 100 ± 0.76 | No activity | 102 ± 1.58 | 97.3 ± 1.03
 |  |  |  |  |  |  |  | CC[C@H]1OC(=O)[C@H](C)[C@@H](O)[C@H](C)[C@@H](O)[C@@H](C)C[C@@H](C)C(=O)[C@H](C)[C@@H](O)[C@H]1C [Compound 2, 6-desoxyerythronolide B] | 101 ± 1.62 | 103 ± 3.56 | 105 ± 1.56 | 101 ± 1.13 | No activity | 99.1 ± 1.4 | 95.3 ± 0.96
 | 3.61 | 9.54 | 5.96 | 6.31 | 6.37 | 6.12 ± 2.87 |  | CCC1OC(=O)C(C)C(OC2CC(C)(OC(C)=O)C(OC(C)=O)C(C)O2)C(C)C(OC2OC(C)CC(N(C)C)C2O)C(C)(OC2CC(N(C)C)C(O)C(C)O2)CC(C)C(=O)C(C)C(O)C1(C)O (stereo not drawn) [Compound 3, megalomicin C1] | 100 ± 1.66 | 97.3 ± 2.22 | 102 ± 1.74 | 98.6 ± 1.38 | No activity | 104 ± 1.32 | 104 ± 1.94
 |  |  |  |  |  |  | a mixture of two compounds is observed | CCC1OC(=O)C(C)C(O)C(C)C(O)C2(C)CC(C)C(OC)(O2)C(C)=CC1C (stereo not drawn) [Compound 5, 6,9-hemiacetal-9-O-methyl-10,11-anhydroerythronolide B] | 99.1 ± 0.32 | 99.7 ± 0.59 | 100 ± 1.74 | 99 ± 3.28 | No activity | 103 ± 1.52 | 103 ± 1.77
